Measurements reported in US20140179519A1, “N-THIO-ANTHRANILAMIDE COMPOUNDS AND THEIR USE AS PESTICIDES” (BASF SE, priority 2011, published 2014).

How the values were obtained:
[1] = test system: Orchid thrips (Dichromothrips corbetti); assay: CE.1 Orchid thrips floral-immersion test, comparison with comparative compounds; type: in vivo; details: for % activity (mortality of Orchid thrips in %, vs. untreated control): floral immersion, 72 hours after treatment
Description: (§1) The activity summarized in the tables hereinbelow are given as percentage of mortality in comparison with untreated control
Dichromothrips corbetti adults used for bioassay were obtained from a colony maintained continuously under laboratory conditions. For testing purposes, the test compound is diluted in a 1:1 mixture of acetone:water (vol:vol), plus 0.01% vol/vol Alkamuls® EL 620 surfactant.
Thrips potency of each compound was evaluated by using a floral-immersion technique. Plastic petri dishes were used as test arenas. All petals of individual, intact orchid flowers were dipped into treatment solution and allowed to dry. Treated flowers were placed into individual petri dishes along with about 20 adult thrips. The petri dishes were then covered with lids. All test arenas were held under continuous light and a temperature of about 28° C. for duration of the assay. After 3 days, the numbers of live thrips were counted on each flower, and along inner walls of each petri dish. The percent mortality was recorded 72 hours after treatment.

[2] = test system: Rice green leafhopper (Nephotettix virescens); assay: CE.2 Rice green leafhopper spray test on rice seedlings, comparison with comparative compound; type: in vivo; details: for % activity (mortality of Rice green leafhopper in %, vs. untreated control): sprayed rice seedlings, after 72 hours
Description: as §1
Rice seedlings were cleaned and washed 24 hours before spraying. The active compounds were formulated in 50:50 acetone:water (vol:vol), and 0.1% vol/vol surfactant (EL 620) was added. Potted rice seedlings were sprayed with 5 ml test solution, air dried, placed in cages and inoculated with 10 adults. Treated rice plants were kept at about 28-29° C. and relative humidity of about 50-60%. Percent mortality was recorded after 72 hours.

[3] = percent mortality 72 hours after treatment

Cc1cc(Cl)cc(C(=O)N=S(C)C)c1NC(=O)c1cc(C(F)F)nn1-c1ncccc1Cl [Compound 4]
% activity (mortality of Orchid thrips in %, vs. untreated control) ([1]; 10 ppm active ingredient): 95%
% activity (mortality of Orchid thrips in %, vs. untreated control) ([1]; 100 ppm active ingredient): 100%
% activity (mortality of Orchid thrips in %, vs. untreated control) ([1]; 300 ppm active ingredient): 100%
activity against Orchid thrips in comparison with comparative compound CC-1 [1, 3]: superior activity

Cc1cc(Cl)cc(C(=O)N=S(C(C)C)C(C)C)c1NC(=O)c1cc(C(F)F)nn1-c1ncccc1Cl [Compound 25]
% activity (mortality of Orchid thrips in %, vs. untreated control) ([1]; 10 ppm active ingredient): 95%
% activity (mortality of Orchid thrips in %, vs. untreated control) ([1]; 100 ppm active ingredient): 100%
% activity (mortality of Orchid thrips in %, vs. untreated control) ([1]; 300 ppm active ingredient): 100%
activity against Orchid thrips in comparison with comparative compound CC-2 [1, 3]: superior activity
% activity (mortality of Rice green leafhopper in %, vs. untreated control) ([2]; 100 ppm active ingredient): 50%
% activity (mortality of Rice green leafhopper in %, vs. untreated control) ([2]; 300 ppm active ingredient): 100%
% activity (mortality of Rice green leafhopper in %, vs. untreated control) ([2]; 500 ppm active ingredient): 100%
activity against Rice green leafhopper in comparison with comparative compound CC-2 ([2]; percent mortality after 72 hours): superior activity
